One series concerns K562. As to the kind of experiment: Cytotoxicity against human K562 cells assessed as cell growth inhibition incubated for 72 hrs by MTT assay. It is filed as functional, cell-based. The conditions noted are these: K562, 72 h.
For series [1], the system named is A549. As to the kind of experiment: Cytotoxicity against human A549 cells assessed as cell growth inhibition incubated for 72 hrs by MTT assay. It is filed as functional, cell-based. The conditions noted are these: A549, 72 h. For orientation: Formazan colour is commonly taken as a measure of viable cells.
The test system of the next series is MCF7. In words: Cytotoxicity against human MCF7 cells assessed as cell growth inhibition incubated for 48 hrs by WST-1 assay. It is filed as functional, cell-based. The conditions noted are these: MCF7, 48 h.
Another series has as its system AGS. As to the kind of experiment: Cytotoxicity against human AGS cells assessed as cell growth inhibition incubated for 48 hrs by WST-1 assay. The series is classed as functional, cell-based.
In series [2] the test system is Jurkat. As to the kind of experiment: Cytotoxicity against human Jurkat cells assessed as cell growth inhibition incubated for 48 hrs by WST-1 assay. The series is classed as functional, cell-based.
The subject of series [3] is A549. In words: Cytotoxicity against human A549 cells assessed as cell growth inhibition incubated for 48 hrs by WST-1 assay. The series is classed as functional, cell-based. To be noted: A549, 48 h.
Another series deals with A2780. In words: Cytotoxicity against human A2780 cells assessed as cell growth inhibition incubated for 48 hrs by WST-1 assay. It is filed as functional, cell-based. The conditions noted are these: A2780, 48 h.
Another series has as its system HT-29. As to the kind of experiment: Cytotoxicity against human HT-29 cells assessed as cell growth inhibition incubated for 48 hrs by WST-1 assay. It is filed as functional, cell-based. The conditions noted are these: HT-29, 48 h.
The test system of series [4] is HL-60. In words: Cytotoxicity against human HL-60 cells assessed as cell growth inhibition incubated for 48 hrs by WST-1 assay. It is filed as functional, cell-based. The conditions noted are these: HL-60, 48 h.
The next series relates to BT-549. As to the kind of experiment: Cytotoxicity against human BT-549 cells assessed as cell growth inhibition incubated for 48 hrs by WST-1 assay. It is filed as functional, cell-based. To be noted: BT-549, 48 h.
The next series has as its system COLO 201. As to the kind of experiment: Cytotoxicity against human COLO201 cells assessed as cell growth inhibition incubated for 48 hrs by WST-1 assay. The series is classed as functional, cell-based. The conditions noted are these: COLO 201, 48 h.
In a further series the test system is Caco-2. In words: Antiproliferative activity against human Caco-2 cells incubated for 96 hrs by MTT assay. It is filed as functional, cell-based. The conditions noted are these: Caco-2, 96 h.
Series [5] has as its system HL-60. As to the kind of experiment: Antiproliferative activity against human HL-60 cells incubated for 96 hrs by MTT assay. The series is classed as functional, cell-based. To be noted: HL-60, 96 h.
Series [6] deals with HaCaT. As to the kind of experiment: Cytotoxicity against human HaCaT cells assessed as decrease in cell viability at 50 uM incubated for 1 hr in presence of UV radiation by CellTiter-96 assay. The series is classed as toxicity, cell-based.
Series [7] can be described thus: Toxicity in Sprague-Dawley rat assessed as NOAEL by po administrated gestational day upto 20 days. It is filed as organism-based. The conditions noted are these: in vivo, time < 20 day.
Series [8] in a line: Toxicity in Sprague-Dawley rat assessed as LOAEL by po administrated gestational day upto 20 days. The series is classed as organism-based. To be noted: in vivo, 480 h, time < 20 day.
Series [9] is described as follows: Oral bioavailability in Wistar rat at 100 mg/kg by UPLC-MS/MS analysis. The conditions noted are these: in vivo. It is filed as ADME, organism-based.
Series [10] concerns HaCaT. As to the kind of experiment: Induction of DNA damage in human HaCaT cells assessed as fold change at 50 uM in presence of UV radiation by comet assay. The series is classed as toxicity, cell-based.
For series [11], the system named is Plasmodium falciparum. As to the kind of experiment: Antimalarial activity against chloroquine sensitive Plasmodium falciparum NF54 assessed as inhibition of parasite growth incubated for 72 hrs by [3H]-hypoxanthine incorporation assay based liquid scintillation counter. It is filed as functional, organism-based.
The subject of the next series is MOLT-4. As to the kind of experiment: Cytotoxicity against human MOLT-4 cells assessed as cell growth inhibition incubated for 48 hrs by XTT assay. The series is classed as functional, cell-based. To be noted: MOLT-4, 48 h.
Series [12] deals with HL-60. In words: Cytotoxicity against human HL-60 cells assessed as cell growth inhibition incubated for 48 hrs by XTT assay. It is filed as functional, cell-based. To be noted: HL-60, 48 h.
In series [13] the test system is Jurkat. As to the kind of experiment: Cytotoxicity against human Jurkat cells assessed as cell growth inhibition incubated for 48 hrs by XTT assay. The series is classed as functional, cell-based.
In series [14] the test system is Plasmodium falciparum. In words: Antimalarial activity against chloroquine resistant Plasmodium falciparum K1 assessed as inhibition of parasite growth incubated for 72 hrs by [3H]-hypoxanthine incorporation assay based liquid scintillation counter. The series is classed as functional, organism-based.

The structures appear in SMILES notation. pIC50: −log10 of the molar value.

As to `O[C@H]1[C@@H](c2nccc3c2[nH]c2ccccc23)[C@@H]2CCN3CCCC/C=C\CC[C@@]1(O)[C@@H]1NCCCC/C=C\CC[C@]21C3`, the pIC50 in the series with K562 is 5.28; in the series on A549 [1] it was 5.24.

For the compound `CO[C@@H]1C=C[C@@]23c4cc5c(cc4[C@H](O)N(C[C@@H]2O)[C@H]3C1)OCO5`, the pIC50 in the series on MCF7, in the series with AGS, with Jurkat [2], in the series on A549 [3], with A2780 and with HT-29 was 6.52 throughout. Moreover, the pIC50 in the series with HL-60 [4], in the series on BT-549 and in the series on COLO 201 was 6.52 in each case.

In the case of `COC(=O)c1ccc(OC)c(OC)c1NC(=O)c1cc(C/C=C(\C)c2c3[n+](cc4c(OC)c(OC)ccc24)CCc2cc4c(cc2-3)OCO4)c2c(c1)OCO2`, the pIC50 was 5.03 in the series on Caco-2 and 4.99 with HL-60 [5].

Consider `[O-][n+]1ccc2c([nH]c3ccccc32)c1[C@H]1[C@@H]2CCN3CCCC/C=C\CC[C@@]4(O[C@@H]14)[C@@H]1NCCCC/C=C\CC[C@@]12C3`, for which the pIC50 in the series with K562 was 5.28; with A549 [1] it was 5.24.

Take `O[C@]12C=C(c3nccc4c3[nH]c3ccccc34)[C@@H]3CCN(CCCC/C=C\CC1)C[C@@]31C[C@@]34CC[C@@H](CCCN3[C@H]12)O4`: the pIC50 is 5.28 with K562 and 5.24 in the series on A549 [1].

For `O[C@@H]1CCCN2[C@@H](CC1)C[C@]13CN4CCCC/C=C\CC[C@](O)(C=C(c5nccc6c5[nH]c5ccccc56)[C@@H]1CC4)[C@H]23` [32,33-DIHYDRO-31-HYDROXYMANZAMINE A], the pIC50 in the series on K562 is 5.28; in the series with A549 [1] it was 5.24.

In the case of `O[C@H]1[C@H]2c3cc4c(cc3CN3CCC(=C[C@@H]1O)[C@H]23)OCO4` [LYCORINE], the pIC50 in the series on MCF7, in the series with AGS, in the series on Jurkat [2], in the series on A549 [3], in the series with A2780 and with HT-29 was 6.52 throughout. Besides, the pIC50 in the series with HL-60 [4], in the series with BT-549 and with COLO 201 was 6.52 each time.

As to `O[C@H]1/C=C\[C@H]2C[C@]34CN5CCCC/C=C\CC[C@](O)(C=C(c6nccc7c6[nH]c6ccccc67)[C@@H]3CC5)[C@@H]4N2CCC1`, the figures for the pIC50 in the series with K562 and with A549 [1] were 5.28 and 5.24, respectively.

For the compound `CO[C@@H]1C=C[C@@]23c4cc5c(cc4CN(C[C@@H]2O)[C@H]3C1)OCO5` [(+)-HAEMANTHAMINE], the pIC50 in the series with MCF7, in the series on AGS, in the series on Jurkat [2], with A549 [3], in the series with A2780 and with HT-29 was 6.52 in each case. Also, the pIC50 in the series on HL-60 [4], in the series on BT-549 and with COLO 201 was 6.52 in each case.

With `COc1ccc2cc3[n+](cc2c1OC)CCc1cc2c(cc1-3)OCO2` [BERBERINE], in the series on HaCaT [6], the Activity is given as 80%. In addition, the NOAEL at 480 h in series [7] amounted to 420 mg/kg. Further, the LOAEL in [8] was 1313 mg/kg. In [9], this compound yielded a bioavailability of 0.36%. Further, the “fold change (FC)” value with HaCaT [10] amounted to 3.

As to `COc1cc(O)c(-c2cc(-c3cc(-c4c(O)cc5c(c4OC)[C@H](C)N[C@H](C)C5)c4cc(C)cc(OC)c4c3O)c(O)c3c(OC)cc(C)cc23)c2c1[C@H](C)N[C@H](C)C2`, the pIC50 in the series on Plasmodium falciparum [11] is 7.47.

Regarding `C1=C\CC[C@]23CN4CCCC/C=C\CC[C@@]5(O[C@H]5[C@@H](c5nccc6c5[nH]c5ccccc56)[C@@H]2CC4)[C@@H]3NCCCC/1` [MANZAMINE B], the figures for the pIC50 in the series on K562 and in the series with A549 [1] were 5.28 and 5.24, respectively.

For the compound `CN1Cc2c(ccc3c2OCO3)[C@@H]2[C@H]1c1cc3c(cc1C[C@@H]2O)OCO3` [CHELIDONINE], the pIC50 in the series on MOLT-4, in the series with HL-60 [12] and in the series with Jurkat [13] was 5.66 throughout.

With `COc1cc(O)c(-c2cc(-c3cc(-c4c(O)cc5c(c4OC)[C@@H](C)N[C@H](C)C5)c4cc(C)cc(OC)c4c3O)c(O)c3c(OC)cc(C)cc23)c2c1[C@H](C)N[C@H](C)C2`, the pIC50 is 6.38 in the series on Plasmodium falciparum [11] and 6.34 with Plasmodium falciparum [14].

As for `COc1ccc2c(c1OC)CN(C)[C@@H]1c3cc4c(cc3C[C@H](O)[C@H]21)OCO4`, the pIC50 in the series with MOLT-4, in the series with HL-60 [12] and in the series on Jurkat [13] was 5.32 each time.

In the case of `O[C@]12C=C(c3nccc4c3[nH]c3ccccc34)[C@@H]3CCN(CCCC/C=C\CC1)C[C@@]31C[C@@H]3/C=C\CCCCN3[C@H]12` [MANZAMINE A], the pIC50 with K562 was 5.28; in the series on A549 [1], 5.24.

`COc1cc(O)c(-c2cc(-c3cc(-c4c(O)cc5c(c4OC)[C@H](C)N[C@H](C)C5)c4cc(C)cc(OC)c4c3O)c(O)c3c(OC)cc(C)cc23)c2c1[C@@H](C)N[C@H](C)C2`: the figures for the pIC50 in the series with Plasmodium falciparum [11] and with Plasmodium falciparum [14] were 6.68 and 6.86, respectively.

On to `[O-][N+]1=C([C@H]2[C@@H]3CCN4CCCC/C=C\CC[C@@]5(O[C@@H]25)[C@@H]2NCCCC/C=C\CC[C@@]23C4)c2[nH]c3ccccc3c2CC1`, for which the pIC50 in the series with K562 was 5.28; in the series with A549 [1] it was 5.24.

`O[C@]12C=C(c3nccc4c3[nH]c3ccccc34)[C@@H]3CCN(CCCC/C=C\CC1)C[C@@]31C[C@@H]3C=C[C@H]4CCC[N@+]43[C@H]12`: the pIC50 was 5.28 in the series on K562 and 5.24 in the series with A549 [1].

For orientation: pIC50 means the IC50 on a negative log10 scale, so that one unit is a factor of ten. The NOAEL is the highest tested level that showed no adverse finding. As usually defined, the LOAEL is the lowest dose or exposure tested at which an adverse effect was seen. For orientation: bioavailability means dose-corrected exposure relative to a reference, in per cent. Higher therefore signals good availability.

For the origin of these results see ChEMBL document CHEMBL5241101, “Plant isoquinoline alkaloids: Advances in the chemistry and biology of berberine” (Eur J Med Chem, 2021).
